Measurements reported in the supplement of paper PMC10307832.

Compound: COC1=C(C=C(C=C1)C2=CC3=NC=CN3C(=N2)NC4=C(C=CC=N4)C(=O)N)OC [BAY61-3606]
Test: relative viability (nuclei count vs DMSO), 5 days (fraction); higher = more cells survive
Settings: 0.02 µM
Summary of the method: (§1)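 In 1536-well plates, lung cancer cell lines rested overnight at 37 °C before five library-drug doses (not always all listed), √10 apart, were pinned onto vehicle-anchored plates. Nuclei were counted with MetaXpress from 4× Hoechst images taken after 5 days without medium change. Viability compares treated-well with vehicle-well nuclei as a median over plates, and plates needed control CV below 25% plus at least one doubling to pass.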

Cell Line | relative viability
NCI-H650 | 1
NCI-H3122 | 1.02
NCI-H1395 | 1.02
201T | 0.996
NCI-H1975 | 0.958
HOP-62 | 0.969
NCI-H1299 | 1.02
NCI-H2405 | 1.07
NCI-H1355 | 1.08
NCI-H838 | 1.03
CAL-12T | 1.02
NCI-H1666 | 1.14
EPLC-272H | 1.02
NCI-H2347 | 1.03
NCI-H1915 | 0.993
NCI-H1437 | 1.03

Cell Line | relative viability
NCI-H460 | 1.04
NCI-H1563 | 1.16
NCI-H1792 | 0.982
NCI-H2085 | 1.08
HCC-15 | 1
NCI-H1944 | 1.08
EKVX | 1.04
NCI-H1650 | 1.06
NCI-H2170 | 0.983
NCI-H1993 | 0.958
NCI-H23 | 1.11
ABC-1 | 1.04
SK-MES-1 | 1.02
PC-14 | 1.07
HCC-366 | 0.988

Same assay, conditions: 0.06325 µM

Cell Line | relative viability
NCI-H650 | 0.802
NCI-H3122 | 1
NCI-H1395 | 0.811
201T | 0.959
NCI-H1975 | 0.964
HOP-62 | 1
NCI-H1299 | 1.01
NCI-H2405 | 0.984
NCI-H1355 | 0.916
NCI-H838 | 0.942
CAL-12T | 1.07
NCI-H1666 | 0.996
EPLC-272H | 1.05
NCI-H2347 | 1.05
NCI-H1915 | 0.996
NCI-H1437 | 1.03

Cell Line | relative viability
NCI-H460 | 1.03
NCI-H1563 | 0.993
NCI-H1792 | 0.853
NCI-H2085 | 1.03
HCC-15 | 0.971
NCI-H1944 | 1
EKVX | 1
NCI-H1650 | 0.883
NCI-H2170 | 0.978
NCI-H1993 | 0.896
NCI-H23 | 1.03
ABC-1 | 0.942
SK-MES-1 | 0.994
PC-14 | 1.04
HCC-366 | 1.03

Same assay, conditions: 0.2 µM

Cell Line | relative viability
NCI-H650 | 0.818
NCI-H3122 | 0.985
NCI-H1395 | 0.826
201T | 1
NCI-H1975 | 0.913
HOP-62 | 0.954
NCI-H1299 | 1.02
NCI-H2405 | 0.977
NCI-H1355 | 0.937
NCI-H838 | 0.999
CAL-12T | 0.938
NCI-H1666 | 0.958
EPLC-272H | 0.894
NCI-H2347 | 1.04
NCI-H1915 | 0.826
NCI-H1437 | 0.978

Cell Line | relative viability
NCI-H460 | 0.959
NCI-H1563 | 1.01
NCI-H1792 | 1
NCI-H2085 | 0.995
HCC-15 | 0.994
NCI-H1944 | 0.95
EKVX | 0.884
NCI-H1650 | 0.964
NCI-H2170 | 0.974
NCI-H1993 | 0.818
NCI-H23 | 0.78
ABC-1 | 0.986
SK-MES-1 | 0.974
PC-14 | 0.916
HCC-366 | 1.01

Same assay, conditions: 0.6325 µM

Cell Line | relative viability
NCI-H650 | 0.942
NCI-H3122 | 1.01
NCI-H1395 | 0.895
201T | 1.01
NCI-H1975 | 0.874
HOP-62 | 0.956
NCI-H1299 | 1.04
NCI-H2405 | 0.968
NCI-H1355 | 0.961
NCI-H838 | 0.934
CAL-12T | 0.99
NCI-H1666 | 1.04
EPLC-272H | 0.873
NCI-H2347 | 1
NCI-H1915 | 1.01
NCI-H1437 | 1

Cell Line | relative viability
NCI-H460 | 0.998
NCI-H1563 | 0.994
NCI-H1792 | 0.885
NCI-H2085 | 1.08
HCC-15 | 0.988
NCI-H1944 | 0.785
EKVX | 1.07
NCI-H1650 | 1.11
NCI-H2170 | 1.03
NCI-H1993 | 0.97
NCI-H23 | 0.947
ABC-1 | 1.03
SK-MES-1 | 1.06
PC-14 | 0.992
HCC-366 | 0.96

Same assay, conditions: 2 µM

Cell Line | relative viability
NCI-H650 | 0.745
NCI-H3122 | 0.961
NCI-H1395 | 0.811
201T | 0.95
NCI-H1975 | 0.668
HOP-62 | 0.964
NCI-H1299 | 0.989
NCI-H2405 | 0.84
NCI-H1355 | 0.882
NCI-H838 | 0.668
CAL-12T | 0.628
NCI-H1666 | 1.01
EPLC-272H | 0.729
NCI-H2347 | 1.05
NCI-H1915 | 0.786
NCI-H1437 | 0.941

Cell Line | relative viability
NCI-H460 | 0.891
NCI-H1563 | 0.814
NCI-H1792 | 1.03
NCI-H2085 | 0.934
HCC-15 | 0.896
NCI-H1944 | 0.619
EKVX | 0.99
NCI-H1650 | 0.527
NCI-H2170 | 0.932
NCI-H1993 | 0.806
NCI-H23 | 0.789
ABC-1 | 0.854
SK-MES-1 | 0.891
PC-14 | 0.877
HCC-366 | 0.903

Compound: COc1cccc2c1C(=O)c1c(O)c3c(c(O)c1C2=O)C[C@@](O)(C(=O)CO)C[C@@H]3O[C@H]1C[C@H](N)[C@H](O)[C@H](C)O1 [Doxorubicin]
Test: as above
Settings: 0.001 µM
Summary of the method: as §1

Cell Line | relative viability
NCI-H650 | 1
NCI-H3122 | 0.946
NCI-H1395 | 0.919
201T | 0.867
NCI-H1975 | 1.02
HOP-62 | 0.937
NCI-H1299 | 1.02
NCI-H2405 | 0.972
NCI-H1355 | 0.888
NCI-H838 | 1
CAL-12T | 0.973
NCI-H1666 | 0.902
EPLC-272H | 0.84
NCI-H2347 | 0.992
NCI-H1915 | 0.955
NCI-H1437 | 0.991
NCI-H460 | 0.957
NCI-H1563 | 0.939
NCI-H2085 | 0.971
HCC-15 | 0.807
NCI-H1944 | 0.929
EKVX | 1.01
NCI-H1650 | 0.823
NCI-H2170 | 0.973
NCI-H1993 | 0.967
ABC-1 | 0.943
SK-MES-1 | 0.997
PC-14 | 0.974
HCC-366 | 0.909

Same assay, conditions: 0.003162 µM

Cell Line | relative viability
NCI-H650 | 0.86
NCI-H3122 | 1.01
NCI-H1395 | 1.05
201T | 0.985
NCI-H1975 | 0.985
HOP-62 | 1.04
NCI-H1299 | 1.05
NCI-H2405 | 1.04
NCI-H1355 | 1.04
NCI-H838 | 0.988
CAL-12T | 1.05
NCI-H1666 | 0.996
EPLC-272H | 0.949
NCI-H2347 | 1.08
NCI-H1915 | 1.03
NCI-H1437 | 1.01

Cell Line | relative viability
NCI-H460 | 0.96
NCI-H1563 | 0.939
NCI-H1792 | 0.885
NCI-H2085 | 0.996
HCC-15 | 1.08
NCI-H1944 | 1.02
EKVX | 1.03
NCI-H1650 | 0.809
NCI-H2170 | 0.992
NCI-H1993 | 0.927
NCI-H23 | 1.06
ABC-1 | 1.01
SK-MES-1 | 1.06
PC-14 | 1.05
HCC-366 | 0.991

Same assay, conditions: 0.01 µM

Cell Line | relative viability
NCI-H650 | 0.92
NCI-H3122 | 0.908
NCI-H1395 | 1.02
201T | 0.987
NCI-H1975 | 0.951
HOP-62 | 1
NCI-H1299 | 0.984
NCI-H2405 | 1.08
NCI-H1355 | 1.01
NCI-H838 | 0.964
CAL-12T | 0.926
NCI-H1666 | 0.814
EPLC-272H | 0.932
NCI-H2347 | 0.945
NCI-H1915 | 0.966
NCI-H1437 | 0.894

Cell Line | relative viability
NCI-H460 | 0.859
NCI-H1563 | 0.747
NCI-H1792 | 0.964
NCI-H2085 | 0.994
HCC-15 | 0.975
NCI-H1944 | 0.902
EKVX | 0.963
NCI-H1650 | 0.481
NCI-H2170 | 0.93
NCI-H1993 | 1.01
NCI-H23 | 0.978
ABC-1 | 0.811
SK-MES-1 | 0.906
PC-14 | 1.01
HCC-366 | 1.02

Same assay, conditions: 0.03162 µM

Cell Line | relative viability
NCI-H650 | 0.83
NCI-H3122 | 0.876
NCI-H1395 | 0.891
201T | 0.978
NCI-H1975 | 0.778
HOP-62 | 1.04
NCI-H1299 | 1.02
NCI-H2405 | 0.997
NCI-H1355 | 0.989
NCI-H838 | 0.807
CAL-12T | 0.541
NCI-H1666 | 0.548
EPLC-272H | 0.792
NCI-H2347 | 0.945
NCI-H1915 | 1.03
NCI-H1437 | 0.718

Cell Line | relative viability
NCI-H460 | 0.468
NCI-H1563 | 0.698
NCI-H1792 | 0.903
NCI-H2085 | 0.926
HCC-15 | 0.811
NCI-H1944 | 0.692
EKVX | 0.951
NCI-H1650 | 0.255
NCI-H2170 | 0.799
NCI-H1993 | 0.819
NCI-H23 | 0.654
ABC-1 | 0.414
SK-MES-1 | 0.594
PC-14 | 0.789
HCC-366 | 0.959

Same assay, conditions: 0.1 µM

Cell Line | relative viability
NCI-H650 | 0.741
NCI-H3122 | 0.92
NCI-H1395 | 0.629
201T | 0.942
NCI-H1975 | 0.518
HOP-62 | 1.02
NCI-H1299 | 0.943
NCI-H2405 | 0.626
NCI-H1355 | 1.01
NCI-H838 | 0.552
CAL-12T | 0.349
NCI-H1666 | 0.525
EPLC-272H | 0.964
NCI-H2347 | 0.838
NCI-H1915 | 1.01
NCI-H1437 | 0.409
NCI-H460 | 0.141
NCI-H1563 | 0.683
NCI-H1792 | 0.747
NCI-H2085 | 0.95
HCC-15 | 0.654
NCI-H1944 | 0.802
EKVX | 0.902
NCI-H1650 | 0.159
NCI-H2170 | 1.02
NCI-H1993 | 0.749
NCI-H23 | 0.532
ABC-1 | 0.307
SK-MES-1 | 0.542
